Among the data in patent US20230097157A1, “Bicyclic Pyridin-2-one and pyrimidin-4-one Derivatives Useful As a Factor XIa Inhibitors” (Janssen Pharmaceutica NV, priority 2021, published 2023) are IC50 values, retold here.

The term IC50 denotes the point on the concentration scale where inhibition reaches its midpoint.

One experiment addresses human plasma kallikrein (Homo sapiens, UniProt P03952). As to the kind of experiment: Kallikrein inhibition assay (FLINT) utilizing a quenched AMC peptide substrate Z-Gly-Pro-Arg-AMC. In kind it is biochemical. To be noted: kinetic (KIN) reads, read-out: Kallikrein KIN Inh IC50. The method in brief: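 Human plasma kallikrein (2 nM final) pre-incubated 30 min with compound (11-point 3-fold series, top 1 μM, 2% DMSO), then 50 μM Z-Gly-Pro-Arg-AMC added. Buffer 50 mM Tris pH 7.5, 100 mM NaCl, 5 mM CaCl2, BSA, CHAPS. AMC fluorescence (340/440 nm) read kinetically over 30 min at room temperature, IC50 by 4-parameter logistic fit.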

The next experiment deals with Factor XIa (Homo sapiens, UniProt P03951). The experiment can be described thus: Factor XIa inhibition assay (FLINT) utilizing a fluorophore-quencher pair peptide substrate 5Fam-[…]-K5Tamra. The class given is biochemical. To be noted: kinetic (KIN) reads, read-out: FXIa KIN Inh IC50. The gist of the method:
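FXIa was preincubated with compound for 30 min at room temperature in Tris pH 7.5 buffer containing CaCl2, BSA and CHAPS, then reacted with 15 μM quenched 5Fam/Tamra peptide substrate. Fluorescence (485/520 nm) was read kinetically every 5 min for 30 min.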

Where two headings read alike, the source gives them in different places.

Chain of Factor XIa (P03951 388-625 limits assumed): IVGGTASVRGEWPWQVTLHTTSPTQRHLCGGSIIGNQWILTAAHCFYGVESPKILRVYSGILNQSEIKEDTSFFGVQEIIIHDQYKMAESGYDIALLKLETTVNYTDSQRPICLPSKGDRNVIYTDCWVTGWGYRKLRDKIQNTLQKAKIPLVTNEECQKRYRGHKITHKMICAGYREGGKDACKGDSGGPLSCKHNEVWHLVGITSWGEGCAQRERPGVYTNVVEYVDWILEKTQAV
Chain of Factor XIa (P03951 19-387 partner limits assumed): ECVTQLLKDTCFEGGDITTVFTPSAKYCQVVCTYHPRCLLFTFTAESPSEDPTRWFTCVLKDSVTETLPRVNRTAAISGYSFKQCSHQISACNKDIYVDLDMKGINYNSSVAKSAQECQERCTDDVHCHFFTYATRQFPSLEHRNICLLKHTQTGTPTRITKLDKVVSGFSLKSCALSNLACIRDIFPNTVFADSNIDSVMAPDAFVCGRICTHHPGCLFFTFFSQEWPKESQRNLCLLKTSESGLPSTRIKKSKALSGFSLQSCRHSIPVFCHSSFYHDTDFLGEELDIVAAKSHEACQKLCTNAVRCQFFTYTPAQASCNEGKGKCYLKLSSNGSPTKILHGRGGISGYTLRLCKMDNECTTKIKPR
Chain of human plasma kallikrein (P03952 391-638 limits assumed): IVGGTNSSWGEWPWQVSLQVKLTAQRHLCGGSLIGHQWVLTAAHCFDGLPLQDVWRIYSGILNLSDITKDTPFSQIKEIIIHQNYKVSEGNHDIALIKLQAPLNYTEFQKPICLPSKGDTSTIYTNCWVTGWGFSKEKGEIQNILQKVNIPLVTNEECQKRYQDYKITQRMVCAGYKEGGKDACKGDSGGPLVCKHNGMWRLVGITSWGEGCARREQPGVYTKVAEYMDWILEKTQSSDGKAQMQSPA
Chain of human plasma kallikrein (P03952 20-390 partner limits assumed): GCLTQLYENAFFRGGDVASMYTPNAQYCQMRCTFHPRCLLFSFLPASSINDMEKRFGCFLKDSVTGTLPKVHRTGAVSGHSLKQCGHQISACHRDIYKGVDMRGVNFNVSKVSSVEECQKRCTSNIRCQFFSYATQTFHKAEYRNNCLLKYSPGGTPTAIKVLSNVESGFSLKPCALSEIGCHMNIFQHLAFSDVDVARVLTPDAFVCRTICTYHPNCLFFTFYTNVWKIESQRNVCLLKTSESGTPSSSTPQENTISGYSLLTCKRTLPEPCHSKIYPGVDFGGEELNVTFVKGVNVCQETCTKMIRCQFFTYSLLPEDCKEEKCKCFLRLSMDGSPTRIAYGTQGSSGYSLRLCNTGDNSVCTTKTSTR

As for `Nc1ncc(-c2cnc([C@H]3CC4(CC4)c4cc(-c5c(-n6cnnn6)ccc(Cl)c5F)cc(=O)n43)[nH]2)s1` [Example 17, (R)-3′-(5-(2-Aminothiazol-5-yl)-1H-imidazol-2-yl)-7′-(3-chloro-2-fluoro-6-(1H-tetrazol-1-yl)phenyl)-2′,3′-dihydro-5′H-spiro[cyclopropane-1,1′-indolizin]-5′-one], the results for the IC50 on human plasma kallikrein (unit μM) and at Factor XIa (values in nM) were 9.05 µM and 890 nM, respectively.
For the compound `Nc1ncc(-c2cnc([C@@H]3CC4(CC4)c4cc(-c5c(-n6cnnn6)ccc(Cl)c5F)cc(=O)n43)[nH]2)s1` [Example 18, (S)-3′-(5-(2-Aminothiazol-5-yl)-1H-imidazol-2-yl)-7′-(3-chloro-2-fluoro-6-(1H-tetrazol-1-yl)phenyl)-2′,3′-dihydro-5′H-spiro[cyclopropane-1,1′-indolizin]-5′-one], the results for the IC50 on human plasma kallikrein (values in nM) and at Factor XIa (values in nM) were 0.105 µM and 9.1 nM, respectively.
The corresponding values for `C[C@H]1C[C@@H](c2ncc(-c3cc(N)ncc3F)[nH]2)n2c1cc(-c1c(-n3cnnn3)ccc(Cl)c1F)cc2=O` [Example 19, (1S,3S)-3-(5-(2-Amino-5-fluoropyridin-4-yl)-1H-imidazol-2-yl)-7-(3-chloro-2-fluoro-6-(1H-tetrazol-1-yl)phenyl)-1-methyl-2,3-dihydroindolizin-5(1H)-one] are 0.27 µM and 25.4 nM.
Regarding `C[C@H]1C[C@@H](c2ncc(-c3ccnc(N)n3)[nH]2)n2c1cc(-c1c(-n3cnnn3)ccc(Cl)c1F)cc2=O` [Example 20, (1S,3S)-3-(5-(2-Aminopyrimidin-4-yl)-1H-imidazol-2-yl)-7-(3-chloro-2-fluoro-6-(1H-tetrazol-1-yl)phenyl)-1-methyl-2,3-dihydroindolizin-5(1H)-one], the IC50 was determined as 0.295 µM at human plasma kallikrein (values in nM) and 19.7 nM on Factor XIa (values in nM).
With `C[C@H]1C[C@@H](c2ncc(-c3cnc(F)c(N)c3)[nH]2)n2c1cc(-c1c(-n3cnnn3)ccc(Cl)c1F)cc2=O` [Example 21, (1S,3S)-3-(5-(5-Amino-6-fluoropyridin-3-yl)-1H-imidazol-2-yl)-7-(3-chloro-2-fluoro-6-(1H-tetrazol-1-yl)phenyl)-1-methyl-2,3-dihydroindolizin-5(1H)-one], the IC50 is 0.34 µM on human plasma kallikrein (values in nM) and 64.4 nM at Factor XIa (values in nM).
The corresponding values for `CC(=O)Nc1ncc(-c2cnc(C3CC4(CC4)c4cc(-c5c(-n6cnnn6)ccc(Cl)c5F)cc(=O)n43)[nH]2)s1` (stereo not drawn) [Example 22] are 0.294 µM and 253 nM.
`C[C@H]1C[C@@H](c2ncc(-c3cnc(N)s3)[nH]2)n2c1cc(-c1c(-n3cnnn3)ccc(Cl)c1F)cc2=O` [Example 23, (1S,3S)-3-(5-(2-Aminothiazol-5-yl)-1H-imidazol-2-yl)-7-(3-chloro-2-fluoro-6-(1H-tetrazol-1-yl)phenyl)-1-methyl-2,3-dihydroindolizin-5(1H)-one]: the IC50 on human plasma kallikrein (values in nM) amounted to 0.24 µM; on Factor XIa (values in nM), 5 nM.
In the case of `Nc1ccc(-c2cnc([C@H]3CC4(CC4)c4cc(-c5c(-n6cnnn6)ccc(Cl)c5F)cc(=O)n43)[nH]2)c(F)n1` [Example 24, (R)-3′-(5-(6-Amino-2-fluoropyridin-3-yl)-1H-imidazol-2-yl)-7′-(3-chloro-2-fluoro-6-(1H-tetrazol-1-yl)phenyl)-2′,3′-dihydro-5′H-spiro[cyclopropane-1,1′-indolizin]-5′-one], the IC50 on human plasma kallikrein (unit μM) was greater than 10 µM; on Factor XIa (unit μM), 1100 nM.
Turning to `Nc1ccc(-c2cnc([C@@H]3CC4(CC4)c4cc(-c5c(-n6cnnn6)ccc(Cl)c5F)cc(=O)n43)[nH]2)c(F)n1` [Example 25, (S)-3′-(5-(6-Amino-2-fluoropyridin-3-yl)-1H-imidazol-2-yl)-7′-(3-chloro-2-fluoro-6-(1H-tetrazol-1-yl)phenyl)-2′,3′-dihydro-5′H-spiro[cyclopropane-1,1′-indolizin]-5′-one], the concentration for half-maximal inhibition (IC50) at human plasma kallikrein (values in nM) came out at 0.0141 µM; on Factor XIa (values in nM), 0.6 nM.
As to `Cc1nc(N)sc1-c1cnc([C@@H]2C[C@H](C)c3cc(-c4c(-n5cnnn5)ccc(Cl)c4F)cc(=O)n32)[nH]1` [Example 26, (1S,3S)-3-(5-(2-Amino-4-methylthiazol-5-yl)-1H-imidazol-2-yl)-7-(3-chloro-2-fluoro-6-(1H-tetrazol-1-yl)phenyl)-1-methyl-2,3-dihydroindolizin-5(1H)-one], the IC50 on human plasma kallikrein (unit μM) came out at 1.3 µM; at Factor XIa (values in nM) it was 22.6 nM.
The corresponding values for `C[C@H]1C[C@@H](c2ncc(-c3sc(N)nc3C(F)(F)F)[nH]2)n2c1cc(-c1c(-n3cnnn3)ccc(Cl)c1F)cc2=O` [Example 27, (1S,3S)-3-(5-(2-Amino-4-(trifluoromethyl)thiazol-5-yl)-1H-imidazol-2-yl)-7-(3-chloro-2-fluoro-6-(1H-tetrazol-1-yl)phenyl)-1-methyl-2,3-dihydroindolizin-5(1H)-one] are 2.4 µM and 483 nM.
In the case of `C[C@H]1C[C@@H](c2ncc(-c3cnnn3C)[nH]2)n2c1cc(-c1c(-n3cnnn3)ccc(Cl)c1F)cc2=O` [Example 28, (1S,3S)-7-(3-Chloro-2-fluoro-6-(1H-tetrazol-1-yl)phenyl)-1-methyl-3-(5-(1-methyl-1H-1,2,3-triazol-5-yl)-1H-Imidazol-2-yl)-2,3-dihydroindolizin-5(1H)-one], the IC50 at human plasma kallikrein (unit μM) stood at 6.4 µM; at Factor XIa (values in nM), 311 nM.
For `C[C@H]1C[C@@H](c2ncc(-c3ccc(N)nc3F)[nH]2)n2c1cc(-c1cc(Cl)ccc1-n1cnnn1)cc2=O` [Example 29, (1S,3S)-3-[5-(6-amino-2-fluoro-3-pyridyl)-1H-imidazol-2-yl]-7-[5-chloro-2-(tetrazol-1-yl)phenyl]-1-methyl-2,3-dihydro-1H-indolizin-5-one], the IC50 on human plasma kallikrein (values in nM) was determined as 0.0395 µM; on Factor XIa (values in nM) it was 0.5 nM.
For `C[C@H]1C[C@@H](c2[nH]c(-c3ccc(N)nc3F)nc2F)n2c1cc(-c1c(-n3cnnn3)ccc(Cl)c1F)cc2=O` [Example 34, (1S,3S)-3-(2-(6-Amino-2-fluoropyridin-3-yl)-4-fluoro-1H-imidazol-5-yl)-7-(3-chloro-2-fluoro-6-(1H-tetrazol-1-yl)phenyl)-1-methyl-2,3-dihydroindolizin-5(1H)-one], the IC50 on human plasma kallikrein (values in nM) was found to be 0.0073 µM; on Factor XIa (values in nM) it was 0.1 nM.
The corresponding values for `Cc1nc(N)ccc1-c1cnc([C@@H]2C[C@@H](C)c3cc(-c4c(-n5cnnn5)ccc(Cl)c4F)cc(=O)n32)[nH]1` [Example 50, (1R,3S)-3-(5-(6-Amino-2-methylpyridin-3-yl)-1H-imidazol-2-yl)-7-(3-chloro-2-fluoro-6-(1H-tetrazol-1-yl)phenyl)-1-methyl-2,3-dihydroindolizin-5(1H)-one] are 0.016 µM and 1.4 nM.
As to `C[C@@H]1C[C@@H](c2ncc(-c3ccc(N)nc3Cl)[nH]2)n2c1cc(-c1c(-n3cnnn3)ccc(Cl)c1F)cc2=O` [Example 58, (1R,3S)-3-(5-(6-Amino-2-chloropyridin-3-yl)-1H-imidazol-2-yl)-7-(3-chloro-2-fluoro-6-(1H-tetrazol-1-yl)phenyl)-1-methyl-2,3-dihydroindolizin-5(1H)-one], the IC50 on human plasma kallikrein (values in nM) stood at 0.0031 µM; on Factor XIa (values in nM), 0.4 nM.
The corresponding values for `COC(=O)Nc1ccc(-c2cnc([C@@H]3C[C@H](C)c4cc(-c5c(-n6cnnn6)ccc(Cl)c5F)cc(=O)n43)[nH]2)cc1` [Example 63, Methyl(4-(2-((1S,3S)-7-(3-chloro-2-fluoro-6-(1H-tetrazol-1-yl)phenyl)-1-methyl-5-oxo-1,2,3,5-tetrahydroindolizin-3-yl)-1H-imidazol-5-yl)phenyl)carbamate] are 0.0035 µM and 0.2 nM.
The corresponding values for `COC(=O)Nc1ccc(-c2cnc([C@@H]3C[C@@H](C)c4cc(-c5c(-n6cnnn6)ccc(Cl)c5F)cc(=O)n43)[nH]2)cc1` [Example 65, Methyl(4-(2-((1R,3S)-7-(3-chloro-2-fluoro-6-(1H-tetrazol-1-yl)phenyl)-1-methyl-5-oxo-1,2,3,5-tetrahydroindolizin-3-yl)-1H-imidazol-5-yl)phenyl)carbamate] are 0.0013 µM and 0.6 nM.
The corresponding values for `C[C@@H]1C[C@@H](c2ncc(-c3ccc(N)nc3F)[nH]2)n2c1cc(-c1c(-n3cnnn3)ccc(Cl)c1F)cc2=O` [Example 66, (1R,3S)-3-(5-(6-Amino-2-fluoropyridin-3-yl)-1H-imidazol-2-yl)-7-(3-chloro-2-fluoro-6-(1H-tetrazol-1-yl)phenyl)-1-methyl-2,3-dihydroindolizin-5(1H)-one] are 0.0036 µM and 0.4 nM.
Take `C[C@H]1C[C@@H](c2ncc(-c3ccc(N)nc3F)[nH]2)n2c1cc(-c1c(-n3cnnn3)ccc(Cl)c1F)cc2=O` [Example 67, (1S,3S)-3-(5-(6-Amino-2-fluoropyridin-3-yl)-1H-imidazol-2-yl)-7-(3-chloro-2-fluoro-6-(1H-tetrazol-1-yl)phenyl)-1-methyl-2,3-dihydroindolizin-5(1H)-one]: the IC50 on human plasma kallikrein (values in nM) was 0.0206 µM; on Factor XIa (values in nM) it was 0.4 nM.
Take `CC1C[C@H](c2nc(-c3cnc(N)cn3)c[nH]2)n2c1nc(-c1c(-n3cc(C(F)(F)F)nn3)ccc(Cl)c1F)cc2=O` (stereo partly drawn) [Example 79, (6R)-6-(4-(5-aminopyrazin-2-yl)-1H-imidazol-2-yl)-2-(3-chloro-2-fluoro-6-(4-(trifluoromethyl)-1H-1,2,3-triazol-1-yl)phenyl)-8-methyl-7,8-dihydropyrrolo[1,2-a]pyrimidin-4(6H)-one]: the values for the IC50 at human plasma kallikrein (values in nM) and on Factor XIa (values in nM) were 0.324 µM and 63.5 nM, respectively.
